Test results reported in patent US12552790B2, “Positive modulators of the muscarinic acetylcholine receptor M4” (Vanderbilt University, priority 2023, dated 2026).
pEC50: −log10 of the molar value.

Legend:
Human M4 = biological target: T1, Human M4 (Homo sapiens, UniProt P08173); assay: M4 cell-based functional assay, calcium mobilization, potentiation of ACh EC20; conditions: for Emax at 30 µM: % ACh maximum at 30 μM; for pEC50: CHO-K1 hM4-Gqi5 cells, calcium flux, ACh EC20
T1 construct: expressed in transfected cells
T1 sequence (P08173 1-479): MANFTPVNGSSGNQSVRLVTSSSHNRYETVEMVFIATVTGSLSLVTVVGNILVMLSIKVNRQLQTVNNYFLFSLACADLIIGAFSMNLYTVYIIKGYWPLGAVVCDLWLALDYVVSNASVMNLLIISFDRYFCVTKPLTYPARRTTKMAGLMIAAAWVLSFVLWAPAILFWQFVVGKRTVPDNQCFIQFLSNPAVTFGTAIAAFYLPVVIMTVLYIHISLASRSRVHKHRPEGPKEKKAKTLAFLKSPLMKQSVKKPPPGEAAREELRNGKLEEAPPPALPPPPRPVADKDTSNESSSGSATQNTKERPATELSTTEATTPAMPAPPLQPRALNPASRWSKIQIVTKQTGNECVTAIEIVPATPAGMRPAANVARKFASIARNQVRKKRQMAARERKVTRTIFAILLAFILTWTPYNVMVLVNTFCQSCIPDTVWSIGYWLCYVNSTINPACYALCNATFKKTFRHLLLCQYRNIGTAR
Experimental: Human and rat M4 cDNAs, along with the chimeric G protein Gqi5, were transfected into Chinese hamster ovary (CHO-K1) cells purchased from the American Type Culture Collection using Lipofectamine2000. The transfected cells were subjected to selection antbiotic treatment to generate stable cell lines; G418 sulfate (1 mg/ml) for selecting M4 expressing cells and Hygromycin B (500 μg/mL) for selecting Gqi5 expressing cells. The resulting polyclones were further screened to obtain monoclones of hM4-Gqi5 and rM4-Gqi5 for compound screening assay. Stable monoclone cells were maintained in Ham's F-12 medium containing 10% heat-inactivated fetal bovine serum (FBS), 1× Antibiotic/Antimycotic, 20 mM HEPES, 500 μg/mL G418 sulfate, and 200 μg/mL Hygromycin B in 37° C. humidified incubators in the presence of 5% CO2.
(§1) The high throughput assay was employed to measure receptor-induced mobilization of intracellular calcium to determine compound activity. Test compound was added to cells expressing the muscarinic receptors that were loaded with calcium sensitive fluorescent dye. After a ˜2.5 minute incubation period, a submaximal (EC20) concentration of acetylcholine was added, and the response measured. This kinetic assay allows for simultaneous screening and potency determination of multiple pharmacological modes of action including agonist and potentiator activity. CHO-K1 cells stably expressing muscarinic receptors were plated in growth medium lacking G418 and hygromycin at 15,000 cells/20 μL/well in Greiner 384-well black-walled, tissue culture (TC)-treated, clear-bottom plates (Greiner Bio-One). Cells were incubated overnight at 37° C. and 5% CO2. The next day, calcium assay buffer (Hank's balanced salt solution (HBSS), 20 mM HEPES, 2.5 mM Probenecid, 4.16 mM sodium bicarbonate (Sigma-Aldrich, St. Louis, MO)) was prepared to dilute compounds, agonists, and Fluo-4-acetomethoxyester (Fluo-4-AM), fluorescent calcium indicator dye. Compounds were serially diluted 1:3 into 10 point concentration response curves in DMSO using the Bravo Liquid Handler (Agilent, Santa Clara, CA), transferred to a 384 well daughter plates using an Echo acoustic liquid handler (Beckman Coulter, Indianapolis, Indiana), and diluted in assay Buffer to a 2× final concentration. The agonist plates were prepared using acetylcholine (ACh, Sigma-Aldrich, St. Louis, MO) concentrations for the EC20 and ECMAX responses by diluting in assay buffer to a 5× final concentration. The 2× dye solution (2.3 μM) was prepared by mixing a 2.3 mM Fluo-4-AM stock in DMSO with 10% (w/v) pluronic acid F-127 in a 1:1 ratio in assay buffer. Using a microplate washer (BioTek, Winooski, VT), cells were washed with assay buffer for 3 times to remove medium. After the final wash, 20 μL of assay buffer remained in the cell plates. Immediately, 20 μL of the 2× dye solution (final 1.15 μM) was added to each well of the cell plate using a Multidrop Combi dispenser (Thermo Fisher, Waltham, MA). After cells were incubated with the dye solutions for 45 min at 37° C. in the presence of 5% CO2, the dye solutions were removed and replaced with assay buffer using a microplate washer, leaving 20 μL of assay buffer in the cell plate.
The prepared compound, agonist, and cell plates were placed inside the Functional Drug Screening System uCell (FDSS uCell, Hamamatsu, Japan) to measure the calcium flux. The triple add protocol was used to measure Ca kinetics; Compound, ACh for EC20, and ACh for EC80 adds in an order. Briefly, after establishment of a fluorescence baseline for 2 seconds (excitation, 480 nm; emission, 530 nm), first add occurred by adding 20 μL of test compound to the cells, and the response was measured for 140 seconds. This is followed by second add; 10 μL (5×) of an EC20 concentration of ACh agonist was added to the cells, and the response of the cells was measured for 125 seconds. […]

Human M2 = biological target: T2, Human M2 (Homo sapiens, UniProt P08172); assay: M2 cell-based functional assay, calcium mobilization (selectivity); conditions: for Emax at 30 µM: % ACh maximum at 30 μM
T2 construct: expressed in transfected cells; host or cells: CHO-K1
T2 sequence (P08172 1-466): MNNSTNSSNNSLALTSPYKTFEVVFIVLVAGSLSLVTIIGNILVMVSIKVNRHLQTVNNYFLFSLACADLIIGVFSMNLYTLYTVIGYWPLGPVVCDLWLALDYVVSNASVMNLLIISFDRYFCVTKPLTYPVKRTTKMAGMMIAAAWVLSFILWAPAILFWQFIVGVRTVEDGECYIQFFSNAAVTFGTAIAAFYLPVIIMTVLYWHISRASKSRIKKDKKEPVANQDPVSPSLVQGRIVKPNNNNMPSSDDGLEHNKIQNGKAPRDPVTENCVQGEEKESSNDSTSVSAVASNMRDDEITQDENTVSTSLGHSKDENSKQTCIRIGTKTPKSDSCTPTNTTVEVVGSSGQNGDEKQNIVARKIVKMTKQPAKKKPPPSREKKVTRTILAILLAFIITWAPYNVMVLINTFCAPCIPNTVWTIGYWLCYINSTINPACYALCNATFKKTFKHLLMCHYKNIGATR
Experimental: as §1
The prepared compound, agonist, and cell plates were placed inside the Functional Drug Screening System uCell (FDSS uCell, Hamamatsu, Japan) to measure the calcium flux. The triple add protocol was used to measure Ca kinetics; Compound, ACh for EC20, and ACh for EC80 adds in an order. Briefly, after establishment of a fluorescence baseline for 2 seconds (excitation, 480 nm; emission, 530 nm), first add occurred by adding 20 μL of test compound to the cells, and the response was measured for 140 seconds. This is followed by second add; 10 μL (5×) of an EC20 concentration of ACh agonist was added to the cells, and the response of the cells was measured for 125 seconds. Immediately, the third add occurred by adding […] (5×) of an EC80 concentration of ACh and the response of the cells was measured for 90 seconds. Acetylcholine-mediated maximum response (ECmax) was measured by adding 1 mM ACh as third add in the control wells. DMSO vehicle was added to the control wells in the first add for assessing ACh EC20, EC80, and ECmax responses. Calcium fluorescence was recorded as fold over basal fluorescence and raw data were normalized to the maximal response to ACh agonist. Agonist activity was analyzed as a concentration-dependent increase in calcium mobilization upon compound addition. Positive allosteric modulator activity was analyzed as a concentration-dependent increase in the EC20 acetylcholine response. Antagonist activity was analyzed as a concentration-dependent decrease in the EC80 acetylcholine response. […]

[1] = system: amphetamine-induced hyperlocomotion in male Sprague-Dawley rats; assay: Amphetamine-induced hyperlocomotion in rats; assay type: in vivo; conditions: 10 mg/kg oral gavage, rat, amphetamine 0.75 mg/kg s.c.
Experimental: Drugs: d-Amphetamine hemisulfate was obtained from Sigma (St. Louis, MO). Salt-correction was used to determine the correct amount of the d-amphetamine hemisulfate form in milligrams to add to sterile water in order to yield a 0.75 mg/mL solution, which would be dosed at 1 mL/kg body weight of each animal. […] The solutions were formulated so that animals were injected with a volume equal to 10 mL/kg body weight for all compounds. The appropriate amount according to the dosage was mixed in 10% Tween 80 (Sigma) in sterile water. The mixtures were then vortexed and stored in a 39° C. sonication bath for 1 hour, until in a solution or microsuspension (depending on dose).
Animals: Male Sprague-Dawley rats weighing 239-300 grams and averaging 265 g (Harlan, Inc., Indianapolis, IN) were used. They were housed in the animal care facility certified by the American Association for the Accreditation of Laboratory Animal Care (AALAC) under a 12-hour light/dark cycle (lights on: 6 a.m.; lights off: 6 p.m.) and had free access to food and water. The animals used in this experiment were food-deprived the evening before experimentation for oral dosing of compound/vehicle. The experimental protocols performed during the light cycle were approved by the Institutional Animals Care and Use Committee of Vanderbilt University and conformed to the guidelines established by the National Research Council Guide for the Care and Use of Laboratory Animals.
Amphetamine-induced Hyperlocomotion: Male Harlan Sprague Dawley rats were habituated in Smart Open Field locomotor activity test chambers (Hamilton-Kinder, San Diego, CA) with 16×16 photo beams to automatically record locomotor activity. […] They were monitored for an additional 30 minutes and then injected subcutaneously with vehicle or 0.75 mg/kg amphetamine. Animals were then monitored for an additional 60 minutes, for a total of 120 minutes. Data were expressed as changes in ambulation defined as total number of beam breaks per 5 minute interval. Terminal brain and plasma samples were collected at the end of the study for pharmacokinetic analysis.
Data Analysis: Behavioral data were analyzed using a two-way ANOVA with main effects of treatment and time. Post hoc analysis was performed using a Dunnett's t-test with all treatment groups compared to the Vehicle/amphetamine group (VAMP) group using GraphPad Prism V.5.04 (GraphPad Software, San Diego, CA). Data were graphed using GraphPad Prism V.5.04 (GraphPad Software, San Diego, CA). A probability of p≤0.05 was taken as the level of statistical significance. In addition, the total number of beam breaks from the amphetamine administration (65 min) to the end of the study (120 min) was calculated and graphed. Percent Reversal was calculated as follows using Microsoft Excel: In each animal, total ambulation from t=65 to t=120 was summed. The mean of each sum was calculated in the VAMP group. Then, for each animal, Percent Reversal was calculated with the following formula: Percent Reversal=100−{[(total ambulation in each animal from t=65 to t=120)/(mean of each sum from t=65 to t=120 in VAMP group)]*100}. The mean Percent Reversal, as well as the standard error, was calculated for each dose group using GraphPad Prism V5.04.

[2] = M2 cell-based functional assay, calcium flux

| SMILES | Emax at 30 µM (Human M4) [%] | pEC50 (Human M4) | Emax at 30 µM (Human M2) [%] | pEC50 (Human M2; [2]) | Human M2 EC50 (Human M2; [2]) | percent reversal of amphetamine-induced hyperlocomotion [1] [%] |
| --- | --- | --- | --- | --- | --- | --- |
| [2H]C1([2H])Oc2ccc(OC3CCN(c4nc5n[nH]c(=O)n5c5c4CCC5)CC3)cc2OC1([2H])[2H] [Compound A16, 5-(4-((2,3-dihydrobenzo[b][1,4]dioxin-6-yl-2,2,3,3-d4)oxy)piperidin-1-yl)-2,6,7,8-tetrahydro-1H-cyclopenta[e][1,2,4]triazolo[4,3-a]pyrimidin-1-one] | 84 | 8.40 | 48 | 5.54 |  |  |
| [2H]C1([2H])Oc2ccc(OC3CCN(c4nc5n[nH]c(=O)n5c5c4CCCC5)CC3)cc2OC1([2H])[2H] [Compound A17, 5-(4-((2,3-dihydrobenzo[b][1,4]dioxin-6-yl-2,2,3,3-d4)oxy)piperidin-1-yl)-6,7,8,9-tetrahydro-[1,2,4]triazolo[4,3-a]quinazolin-1(2H)-one] | 87 | 7.19 |  |  | Inactive |  |
| [2H]C([2H])([2H])n1nc2nc(N3CCC(Oc4ccc5c(c4)OC([2H])([2H])C([2H])([2H])O5)CC3)c(C)c(C)n2c1=O [Compound A18, 7-(4-((2,3-dihydrobenzo[b][1,4]dioxin-6-yl-2,2,3,3-d4)oxy)piperidin-1-yl)-5,6-dimethyl-2-(methyl-d3)-[1,2,4]triazolo[4,3-a]pyrimidin-3(2H)-one] | 98 | 8.52 | 53 | 5.95 |  |  |
| Cc1nnc2sc(C(=O)NCc3ccc(S(=O)(=O)C(F)(F)F)cc3)c(N)c2c1C [VU0467154, reference compound] |  |  |  |  |  | 56.2 |

The next lines start with results.

| Emax at 30 µM (Human M4) [%] | pEC50 (Human M4) | Emax at 30 µM (Human M2) [%] | pEC50 (Human M2; [2]) | Human M2 EC50 (Human M2; [2]) | SMILES | percent reversal of amphetamine-induced hyperlocomotion [1] [%] |
| --- | --- | --- | --- | --- | --- | --- |
| 84 | 8.52 | 60 | 5.65 |  | [2H]C1([2H])Oc2ccc(OC3CCN(c4nc5nn(C)c(=O)n5c5c4CCC5)CC3)cc2OC1([2H])[2H] [Compound A14, 5-(4-((2,3-dihydrobenzo[b][1,4]dioxin-6-yl-2,2,3,3-d4)oxy)piperidin-1-yl)-2-methyl-2,6,7,8-tetrahydro-1H-cyclopenta[e][1,2,4]triazolo[4,3-a]pyrimidin-1-one] |  |
| 83 | 7.28 | 45 | 5.23 |  | [2H]C1([2H])Oc2ccc(OC3CCN(c4nc5nn(C)c(=O)n5c5c4CCCC5)CC3)cc2OC1([2H])[2H] [Compound A15, 5-(4-((2,3-dihydrobenzo[b][1,4]dioxin-6-yl-2,2,3,3-d4)oxy)piperidin-1-yl)-2-methyl-6,7,8,9-tetrahydro-[1,2,4]triazolo[4,3-a]quinazolin-1(2H)-one] |  |
